In patent publication US11452717B2, “Small molecule activators of nicotinamide phosphoribosyltransferase (NAMPT) and uses thereof” (Sanford Burnham Prebys Medical Discovery Institute, priority 2017, dated 2022):

Target: NAMPT enzyme (Homo sapiens (Human), UniProt P43490)
Assay: Enzyme Assay and NMN Detection (NAMPT reaction, fluorescence detection of NMN)
Format: biochemical
Settings: NAMPT activation, NMN formation
In short: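 Reaction in 50 mM HEPES pH 7.5, 5 mM MgCl2, 0.1% Prionex, 0.005% Tween 20, 1 mM TCEP at room temperature, with 16 nM NAMPT, 120 uM ATP, 5 uM nicotinamide, 6.25 uM PRPP, 0.04 U/ml pyrophosphatase for 2 h. Stopped with acetophenone/KOH then formic acid; NMN quantified by fluorescence (ex380/em460) against calibration curve.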

Chain of NAMPT enzyme (P43490 whole entry, species assumed): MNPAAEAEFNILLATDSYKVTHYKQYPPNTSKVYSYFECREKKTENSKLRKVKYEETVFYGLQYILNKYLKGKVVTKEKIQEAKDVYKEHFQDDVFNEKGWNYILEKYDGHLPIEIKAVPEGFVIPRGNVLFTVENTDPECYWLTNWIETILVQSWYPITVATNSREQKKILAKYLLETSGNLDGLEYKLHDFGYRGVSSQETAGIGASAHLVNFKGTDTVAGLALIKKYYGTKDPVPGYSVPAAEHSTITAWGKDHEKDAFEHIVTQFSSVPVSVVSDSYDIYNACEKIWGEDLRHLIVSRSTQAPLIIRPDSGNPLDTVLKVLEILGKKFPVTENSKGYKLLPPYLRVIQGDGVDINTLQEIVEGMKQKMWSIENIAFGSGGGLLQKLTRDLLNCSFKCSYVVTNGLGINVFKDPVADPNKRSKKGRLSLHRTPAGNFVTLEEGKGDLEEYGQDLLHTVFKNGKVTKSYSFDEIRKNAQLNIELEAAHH

Structure (SMILES)	EC50 (Table B-5) [nM]	EC50 (Table B-6) [nM]	also measured
O=C(NCc1ccccn1)Nc1ccc(OC(F)(F)F)cc1 [1-(Pyridin-2-ylmethyl)-3-(4-(trifluoromethoxy)phenyl)urea]	–	–	EC50 (Table B-3): > 20000 nM
O=C(NCc1ccccn1)Nc1ccc(C(F)(F)F)cc1 [1-(Pyridin-2-ylmethyl)-3-(4-(trifluoromethyl)phenyl)urea]	–	–	EC50 (Table B-3): > 20000 nM
Cc1ccc(NC(=O)NCc2ccccn2)cc1 [1-(Pyridin-2-ylmethyl)-3-(p-tolyl)urea]	–	–	EC50 (Table B-3): > 20000 nM
O=C(NCc1cccnc1)Nc1ccc(OC(F)(F)F)cc1 [1-(Pyridin-3-ylmethyl)-3-(4-(trifluoromethoxy)phenyl)urea]	–	–	EC50 (Table B-3): > 20000 nM
O=C(NCc1cccnc1)Nc1ccc(C(F)(F)F)cc1 [1-(Pyridin-3-ylmethyl)-3-(4-(trifluoromethyl)phenyl)urea]	–	–	EC50 (Table B-3): > 20000 nM
Cc1ccc(NC(=O)NCc2cccnc2)cc1 [1-(Pyridin-3-ylmethyl)-3-(p-tolyl)urea]	–	–	EC50 (Table B-3): > 20000 nM
O=C(NCc1ccncc1)Nc1ccc(C(=O)N2CCc3ccccc3C2)cc1 [1-(Pyridin-4-ylmethyl)-3-(4-(1,2,3,4-tetrahydroisoquinoline-2-carbonyl)phenyl)urea]	–	–	EC50 (Table B-2): 100 to 2000 nM
O=C(NCc1ccncc1)Nc1ccc(C(=O)N2CCCC2)cc1 [1-(Pyridin-4-ylmethyl)-3-(4-(pyrrolidine-1-carbonyl)phenyl)urea]	–	–	EC50 (Table B-2): 5000 to 20000 nM
O=C(NCc1ccncc1)Nc1ccc(OC(F)(F)F)cc1 [1-(Pyridin-4-ylmethyl)-3-(4-(trifluoromethoxy)phenyl)urea]	–	–	EC50 (Table B-2): > 20000 nM
O=C(NCc1ccncc1)Nc1ccc(C(F)(F)F)cc1 [1-(Pyridin-4-ylmethyl)-3-(4-(trifluoromethyl)phenyl)urea]	–	–	EC50 (Table B-2): 5000 to 20000 nM
Cc1ccc(NC(=O)NCc2ccncc2)cc1 [1-(Pyridin-4-ylmethyl)-3-(p-tolyl)urea]	–	–	EC50 (Table B-2): > 20000 nM
O=C(NCc1cnco1)Nc1ccc(S(=O)(=O)c2ccccc2C(F)(F)F)cc1 [1-Oxazol-5-ylmethyl-3-[4-(2-trifluoromethyl-benzenesulfonyl)-phenyl]-urea]	100 to 2000	–	–
O=C(NCc1cnco1)Nc1ccc(S(=O)(=O)c2ccc(OC(F)(F)F)cc2)cc1 [1-Oxazol-5-ylmethyl-3-[4-(4-trifluoromethoxy-benzenesulfonyl)-phenyl]-urea]	100 to 2000	–	–
O=C(NCc1cnco1)Nc1ccc(S(=O)(=O)c2cnccn2)cc1 [1-Oxazol-5-ylmethyl-3-[4-(pyrazine-2-sulfonyl)-phenyl]-urea]	100 to 2000	–	–
O=C(NCc1cnco1)Nc1ccc(S(=O)(=O)c2ncccn2)cc1 [1-Oxazol-5-ylmethyl-3-[4-(pyrimidine-2-sulfonyl)-phenyl]-urea]	5000 to 20000	–	–
O=C(NCc1cnco1)Nc1ccc(S(=O)(=O)c2nccs2)cc1 [1-Oxazol-5-ylmethyl-3-[4-(thiazole-2-sulfonyl)-phenyl]-urea]	100 to 2000	–	–
O=C(NCc1cnco1)Nc1ccc(S(=O)(=O)C2CCN(C3CCOCC3)CC2)cc1 [1-Oxazol-5-ylmethyl-3-{4-[1-(tetrahydro-pyran-4-yl)-piperidine-4-sulfonyl]-phenyl}-urea]	100 to 2000	–	–
O=C(NCc1ccncc1)Nc1ccc(S(=O)(=O)N2Cc3ccccc3C2)cc1 [1-[4-(1,3-Dihydro-isoindole-2-sulfonyl)-phenyl]-3-pyridin-4-ylmethyl-urea]	–	–	EC50 (Table B-2): 100 to 2000 nM
Cc1ccc2c(-c3ccc(NC(=O)NCc4cn[nH]c4)cc3)nn(C)c2c1 [1-[4-(1,6-Dimethyl-1H-indazol-3-yl)-phenyl]-3-(1H-pyrazol-4-ylmethyl)-urea]	–	–	EC50 (Table B-4): 100 to 2000 nM
Cc1ccc2c(-c3ccc(NC(=O)NCc4cnco4)cc3)nn(C)c2c1 [1-[4-(1,6-Dimethyl-1H-indazol-3-yl)-phenyl]-3-oxazol-5-ylmethyl-urea]	100 to 2000	–	–
CC(C)CN1CCC(S(=O)(=O)c2ccc(NC(=O)NCc3cn[nH]c3)cc2)CC1 [1-[4-(1-Isobutyl-piperidine-4-sulfonyl)-phenyl]-3-(1H-pyrazol-4-ylmethyl)-urea]	–	–	EC50 (Table B-4): 2000 to 5000 nM
CC(C)n1cc(S(=O)(=O)c2ccc(NC(=O)NCc3cn[nH]c3)cc2)cn1 [1-[4-(1-Isopropyl-1H-pyrazole-4-sulfonyl)-phenyl]-3-(1H-pyrazol-4-ylmethyl)-urea]	–	–	EC50 (Table B-4): < 100 nM
CC(C)n1cc(S(=O)(=O)c2ccc(NC(=O)NCc3cnco3)cc2)cn1 [1-[4-(1-Isopropyl-1H-pyrazole-4-sulfonyl)-phenyl]-3-oxazol-5-ylmethyl-urea]	100 to 2000	–	–
CC(C)N1CCC(S(=O)(=O)c2ccc(NC(=O)NCc3cn[nH]c3)cc2)CC1 [1-[4-(1-Isopropyl-piperidine-4-sulfonyl)-phenyl]-3-(1H-pyrazol-4-ylmethyl)-urea]	–	–	EC50 (Table B-4): 2000 to 5000 nM
Cn1nc(-c2ccc(NC(=O)NCc3cn[nH]c3)cc2)c2ccccc21 [1-[4-(1-Methyl-1H-indazol-3-yl)-phenyl]-3-(1H-pyrazol-4-ylmethyl)-urea]	–	–	EC50 (Table B-4): 100 to 2000 nM
Cn1nc(-c2ccc(NC(=O)NCc3cnco3)cc2)c2ccccc21 [1-[4-(1-Methyl-1H-indazol-3-yl)-phenyl]-3-oxazol-5-ylmethyl-urea]	2000 to 5000	–	–
Cn1cc(S(=O)(=O)c2ccc(NC(=O)NCc3cn[nH]c3)cc2)cn1 [1-[4-(1-Methyl-1H-pyrazole-4-sulfonyl)-phenyl]-3-(1H-pyrazol-4-ylmethyl)-urea]	–	–	EC50 (Table B-4): 100 to 2000 nM
Cn1cc(S(=O)(=O)c2ccc(NC(=O)NCc3cnco3)cc2)cn1 [1-[4-(1-Methyl-1H-pyrazole-4-sulfonyl)-phenyl]-3-oxazol-5-ylmethyl-urea]	2000 to 5000	–	–

Second part, led by results:

EC50 (Table B-5) [nM]	EC50 (Table B-6) [nM]	Structure (SMILES)	also measured
100 to 2000	–	O=C(NCc1cnco1)Nc1ccc(S(=O)(=O)c2ccccn2)cc1 [1-(Oxazol-5-ylmethyl)-3-(4-(pyridin-2-ylsulfonyl)phenyl)urea]	–
100 to 2000	–	O=C(NCc1cnco1)Nc1ccc(S(=O)(=O)c2ccncc2)cc1 [1-(Oxazol-5-ylmethyl)-3-(4-(pyridin-4-ylsulfonyl)phenyl)urea]	–
–	< 100	O=C(NCc1ccncc1)Nc1ccc(S(=O)(=O)c2cccc(C(F)(F)F)c2)cc1 [1-(Pyridin-4-ylmethyl)-3-(4-((3-(trifluoromethyl)phenyl)sulfonyl)phenyl)urea]	–
–	100 to 2000	O=C(NCc1ccncc1)Nc1ccc(S(=O)(=O)c2ccncc2)cc1 [1-(Pyridin-4-ylmethyl)-3-(4-(pyridin-4-ylsulfonyl)phenyl)urea]	–
100 to 2000	–	O=C(NCc1cnco1)Nc1ccc(S(=O)(=O)c2cccnc2)cc1 [1-Oxazol-5-ylmethyl-3-[4-(pyridine-3-sulfonyl)-phenyl]-urea]	–
100 to 2000	–	Cc1ccccc1S(=O)(=O)c1ccc(NC(=O)NCc2cnco2)cc1 [1-Oxazol-5-ylmethyl-3-[4-(toluene-2-sulfonyl)-phenyl]-urea]	–
100 to 2000	–	Cc1cccc(S(=O)(=O)c2ccc(NC(=O)NCc3cnco3)cc2)c1 [1-Oxazol-5-ylmethyl-3-[4-(toluene-3-sulfonyl)-phenyl]-urea]	–
2000 to 5000	–	Cc1ccc(S(=O)(=O)c2ccc(NC(=O)NCc3cnco3)cc2)cc1 [1-Oxazol-5-ylmethyl-3-[4-(toluene-4-sulfonyl)-phenyl]-urea]	–
–	100 to 2000	O=C(NCc1ccncc1)Nc1ccc(S(=O)(=O)c2cncs2)cc1 [1-Pyridin-4-ylmethyl)-3-(4-(thiazol-5-ylsulfonyl)phenyl)urea]	–
–	< 100	O=C(NCc1ccncc1)Nc1ccc(S(=O)(=O)c2ccccc2OC(F)(F)F)cc1 [1-Pyridin-4-ylmethyl-3-[4-(2-trifluoromethoxy-benzenesulfonyl)-phenyl]-urea]	–
–	100 to 2000	O=C(NCc1ccncc1)Nc1ccc(S(=O)(=O)c2ccccc2C(F)(F)F)cc1 [1-Pyridin-4-ylmethyl-3-[4-(2-trifluoromethyl-benzenesulfonyl)-phenyl]-urea]	–
–	< 100	O=C(NCc1ccncc1)Nc1ccc(S(=O)(=O)c2cccc(OC(F)(F)F)c2)cc1 [1-Pyridin-4-ylmethyl-3-[4-(3-trifluoromethoxy-benzenesulfonyl)-phenyl]-urea]	–
–	100 to 2000	O=C(NCc1ccncc1)Nc1ccc(S(=O)(=O)c2ccc(OC(F)(F)F)cc2)cc1 [1-Pyridin-4-ylmethyl-3-[4-(4-trifluoromethoxy-benzenesulfonyl)-phenyl]-urea]	–
–	2000 to 5000	O=C(NCc1ccncc1)Nc1ccc(S(=O)(=O)c2ncccn2)cc1 [1-Pyridin-4-ylmethyl-3-[4-(pyrimidine-2-sulfonyl)-phenyl]-urea]	–
–	100 to 2000	Cc1ccccc1S(=O)(=O)c1ccc(NC(=O)NCc2ccncc2)cc1 [1-Pyridin-4-ylmethyl-3-[4-(toluene-2-sulfonyl)-phenyl]-urea]	–
–	100 to 2000	Cc1cccc(S(=O)(=O)c2ccc(NC(=O)NCc3ccncc3)cc2)c1 [1-Pyridin-4-ylmethyl-3-[4-(toluene-3-sulfonyl)-phenyl]-urea]	–
–	< 100	Cc1ccc(S(=O)(=O)c2ccc(NC(=O)NCc3ccncc3)cc2)cc1 [1-Pyridin-4-ylmethyl-3-[4-(toluene-4-sulfonyl)-phenyl]-urea]	–
–	100 to 2000	Cc1ccc2c(-c3ccc(NC(=O)NCc4ccncc4)cc3)nn(C)c2c1 [1-[4-(1,6-Dimethyl-1H-indazol-3-yl)-phenyl]-3-pyridin-4-ylmethyl-urea]	–
–	2000 to 5000	CC(C)CN1CCC(S(=O)(=O)c2ccc(NC(=O)NCc3ccncc3)cc2)CC1 [1-[4-(1-Isobutyl-piperidine-4-sulfonyl)-phenyl]-3-pyridin-4-ylmethyl-urea]	–
–	< 100	CC(C)n1cc(S(=O)(=O)c2ccc(NC(=O)NCc3ccncc3)cc2)cn1 [1-[4-(1-Isopropyl-1H-pyrazole-4-sulfonyl)-phenyl]-3-pyridin-4-ylmethyl-urea]	–
–	100 to 2000	CC(C)N1CCC(S(=O)(=O)c2ccc(NC(=O)NCc3ccncc3)cc2)CC1 [1-[4-(1-Isopropyl-piperidine-4-sulfonyl)-phenyl]-3-pyridin-4-ylmethyl-urea]	–
–	100 to 2000	Cn1nc(-c2ccc(NC(=O)NCc3ccncc3)cc2)c2ccccc21 [1-[4-(1-Methyl-1H-indazol-3-yl)-phenyl]-3-pyridin-4-ylmethyl-urea]	–
